In the experiment the target is GST-tagged truncated human mutant G2019S LRRK2 (Homo sapiens (Human), UniProt Q5S007, G2019S). Nature of the experiment: LRRK2 G2019S Km ATP LanthaScreen assay. It counts as biochemical. The conditions noted are these: G2019S LRRK2, 134 μM ATP (Km ATP), LRRKtide substrate. Summed up: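 TR-FRET assay with GST-tagged truncated human G2019S LRRK2 (1.25 nM), preincubated with compound 15 min, then reacted with fluorescein-LRRKtide and 134 μM ATP (Km) in Tris pH 8.5 buffer, 90 min, ambient temperature. Tb-anti-phospho-LRRKtide detection, 520/495 nm ratio; IC50 by 4-parameter logistic fit, top concentration 9.99 μM in DMSO, 10 points.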
Chain of GST-tagged truncated human mutant G2019S LRRK2 (Q5S007 970-2527 G2019S): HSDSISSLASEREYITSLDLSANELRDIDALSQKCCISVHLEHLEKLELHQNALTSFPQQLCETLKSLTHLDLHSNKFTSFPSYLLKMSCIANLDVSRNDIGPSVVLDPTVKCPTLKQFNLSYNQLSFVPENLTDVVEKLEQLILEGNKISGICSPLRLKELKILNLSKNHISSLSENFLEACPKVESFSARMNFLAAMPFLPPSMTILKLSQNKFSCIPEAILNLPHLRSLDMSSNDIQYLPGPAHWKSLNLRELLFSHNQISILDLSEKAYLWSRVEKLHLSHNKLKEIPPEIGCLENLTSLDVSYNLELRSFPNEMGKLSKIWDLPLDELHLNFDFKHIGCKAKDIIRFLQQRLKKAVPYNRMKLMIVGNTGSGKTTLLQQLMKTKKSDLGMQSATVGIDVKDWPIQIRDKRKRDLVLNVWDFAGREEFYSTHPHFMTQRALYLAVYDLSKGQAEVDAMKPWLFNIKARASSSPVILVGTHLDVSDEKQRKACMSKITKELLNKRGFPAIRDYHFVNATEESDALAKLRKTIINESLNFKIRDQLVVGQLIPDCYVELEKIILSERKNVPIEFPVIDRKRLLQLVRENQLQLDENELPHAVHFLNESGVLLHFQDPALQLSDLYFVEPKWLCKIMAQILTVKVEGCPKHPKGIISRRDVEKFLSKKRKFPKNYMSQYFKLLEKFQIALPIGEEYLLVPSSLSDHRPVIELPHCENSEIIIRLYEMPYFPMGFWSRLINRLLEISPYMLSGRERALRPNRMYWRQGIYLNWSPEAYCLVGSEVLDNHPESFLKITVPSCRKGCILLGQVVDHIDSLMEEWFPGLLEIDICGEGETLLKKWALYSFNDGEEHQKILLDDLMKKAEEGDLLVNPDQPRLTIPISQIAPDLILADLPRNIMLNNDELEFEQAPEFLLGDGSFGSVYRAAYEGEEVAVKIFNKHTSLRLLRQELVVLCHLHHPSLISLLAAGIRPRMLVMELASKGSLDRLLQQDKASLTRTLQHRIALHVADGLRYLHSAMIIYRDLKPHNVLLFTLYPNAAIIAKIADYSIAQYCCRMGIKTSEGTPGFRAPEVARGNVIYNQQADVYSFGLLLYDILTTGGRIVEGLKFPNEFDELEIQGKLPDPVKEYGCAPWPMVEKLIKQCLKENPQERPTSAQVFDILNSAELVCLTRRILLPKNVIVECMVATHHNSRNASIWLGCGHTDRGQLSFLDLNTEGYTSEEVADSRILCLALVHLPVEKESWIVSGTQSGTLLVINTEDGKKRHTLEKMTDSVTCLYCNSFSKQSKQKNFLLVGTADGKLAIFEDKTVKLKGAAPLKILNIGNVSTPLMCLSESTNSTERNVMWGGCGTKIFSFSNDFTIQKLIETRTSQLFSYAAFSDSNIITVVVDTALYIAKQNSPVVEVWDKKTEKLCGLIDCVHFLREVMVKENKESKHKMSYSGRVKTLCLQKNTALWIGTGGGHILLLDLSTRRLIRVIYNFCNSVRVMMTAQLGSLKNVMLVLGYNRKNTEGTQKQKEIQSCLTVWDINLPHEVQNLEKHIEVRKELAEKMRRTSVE
With `Cc1nn(C)c2c1OCC1CC[C@H]1Nc1nc(ncc1C(F)(F)F)N2` (stereo partly drawn) [Ex-2.12, (10aR,12aS)- or (10aS,12aR)-1,3-dimethyl-8-(trifluoromethyl)-3,4,10,10a,11,12,12a,13-octahydro-5,9-(azeno)cyclobuta[k]pyrazolo[4,3-b][1]oxa[4,6,10]triazacyclotridecine], the “LRRK2 pIC50” value was 7.61.
As to `Cc1nn(C)c2c1OCC1CC[C@H]1Nc1nc(ncc1C(F)(F)F)N2` (stereo partly drawn) [Ex-2.13, (10aR,12aS)- or (10aS,12aR)-1,3-dimethyl-8-(trifluoromethyl)-3,4,10,10a,11,12,12a,13-octahydro-5,9-(azeno)cyclobuta[k]pyrazolo[4,3-b][1]oxa[4,6,10]triazacyclotridecine], the “LRRK2 pIC50” value was above 10.09.
Then `Cc1nn(C)c2c1OC[C@H]1COC[C@H]1Nc1nc(ncc1C(F)(F)F)N2` [Ex-2.24, (10aS,13aR)- or (10aR,13aS)-1,3-dimethyl-8-(trifluoromethyl)-3,4,10a,11,13a,14-hexahydro-10H,13H-5,9-(azeno)furo[3,4-k]pyrazolo[4,3-b][1]oxa[4,6,10]triazacyclotridecine], with 6.05.
Take `Cc1nn(C2CCC2)c2c1OC[C@@H]1COC[C@H]1Nc1nc(ncc1C(F)(F)F)N2` [Ex-2.28, (3aR,15aR)- or (3aS,15aS)-11-cyclobutyl-13-methyl-6-(trifluoromethyl)-2,3,3a,4,10,11,15,15a-octahydro-5,9-(azeno)furo[3,2-k]pyrazolo[4,3-b][1]oxa[4,6,10]triazacyclotridecine]: the “LRRK2 pIC50” value is 9.64.
Then `Cc1nn(C2CCC2)c2c1OC[C@@H]1COCC[C@H]1Nc1nc(ncc1C(F)(F)F)N2` [Ex-2.33, (4aR,16aS)- or (4aS,16aR)-12-cyclobutyl-14-methyl-7-(trifluoromethyl)-3,4,4a,5,11,12,16,16a-octahydro-1H-6,10-(azeno)pyrano[4,3-k]pyrazolo[4,3-b][1]oxa[4,6,10]triazacyclotridecine], with 9.11; and `Cc1nn(C2CCC2)c2c1OC[C@@H]1COCC[C@H]1Nc1nc(ncc1C(F)(F)F)N2` [Ex-2.34, (4aR,16aS)- or (4aS,16aR)-12-cyclobutyl-14-methyl-7-(trifluoromethyl)-3,4,4a,5,11,12,16,16a-octahydro-1H-6,10-(azeno)pyrano[4,3-k]pyrazolo[4,3-b][1]oxa[4,6,10]triazacyclotridecine], with 8.00; and `Cc1nn(C2CCC2)c2c1OCC1COCCC1Nc1nc(ncc1C(F)(F)F)N2` [Ex-2.35, (4aR,16aR)- and (4aS,16aS)-12-cyclobutyl-14-methyl-7-(trifluoromethyl)-3,4,4a,5,11,12,16,16a-octahydro-1H-6,10-(azeno)pyrano[4,3-k]pyrazolo[4,3-b][1]oxa[4,6,10]triazacyclotridecine], with 8.56.
As for `COC1CCC1n1nc(C)c2c1Nc1ncc(C(F)(F)F)c(n1)NC1COCC1CO2` [Ex-2.36, (10aS,13aS)-3-((1R,2R)-(10aS,13aS)-3-((1S,2R)-(10aS,13aS)-3-((1R,2S)-(10aS,13aS)-3-((1R,2R)-(10aR,13aR)-3-((1S,2R)-(10aR,13aR)-3-((1R,2S)-2-methoxycyclobutyl)-1-methyl-8-(trifluoromethyl)-3,4,10a,11,13a,14-hexahydro-10H,13H-5,9-(azeno)furo[3,4-k]pyrazolo[4,3-b][1]oxa[4,6,10]triazacyclotridecine], the “LRRK2 pIC50” value came to 6.31.
Then `COC1CCC1n1nc(C)c2c1Nc1ncc(C(F)(F)F)c(n1)NC1COCC1CO2` [Ex-2.37, (10aS,13aS)-3-((1R,2R)-(10aS,13aS)-3-((1S,2R)-(10aS,13aS)-3-((1R,2S)-(10aS,13aS)-3-((1R,2R)-(10aR,13aR)-3-((1S,2R)-(10aR,13aR)-3-((1R,2S)-2-methoxycyclobutyl)-1-methyl-8-(trifluoromethyl)-3,4,10a,11,13a,14-hexahydro-10H,13H-5,9-(azeno)furo[3,4-k]pyrazolo[4,3-b][1]oxa[4,6,10]triazacyclotridecine], with 6.00.
Then `COC1CCC1n1nc(C)c2c1Nc1ncc(C(F)(F)F)c(n1)NC1COCC1CO2` [Ex-2.38, (10aS,13aS)-3-((1R,2R)-(10aS,13aS)-3-((1S,2R)-(10aS,13aS)-3-((1R,2S)-(10aS,13aS)-3-((1R,2R)-(10aR,13aR)-3-((1S,2R)-(10aR,13aR)-3-((1R,2S)-2-methoxycyclobutyl)-1-methyl-8-(trifluoromethyl)-3,4,10a,11,13a,14-hexahydro-10H,13H-5,9-(azeno)furo[3,4-k]pyrazolo[4,3-b][1]oxa[4,6,10]triazacyclotridecine], with 6.13.
Then `COC1CCC1n1nc(C)c2c1Nc1ncc(C(F)(F)F)c(n1)NC1COCC1CO2` [Ex-2.39, (10aS,13aS)-3-((1R,2R)-(10aS,13aS)-3-((1S,2R)-(10aS,13aS)-3-((1R,2S)-(10aS,13aS)-3-((1R,2R)-(10aR,13aR)-3-((1S,2R)-(10aR,13aR)-3-((1R,2S)-2-methoxycyclobutyl)-1-methyl-8-(trifluoromethyl)-3,4,10a,11,13a,14-hexahydro-10H,13H-5,9-(azeno)furo[3,4-k]pyrazolo[4,3-b][1]oxa[4,6,10]triazacyclotridecine], with 6.32.
Turning to `COC1CCC1n1nc(C)c2c1Nc1ncc(C(F)(F)F)c(n1)NC1COCC1CO2` [Ex-2.40, (10aS,13aS)-3-((1R,2R)-(10aS,13aS)-3-((1S,2R)-(10aS,13aS)-3-((1R,2S)-(10aS,13aS)-3-((1R,2R)-(10aR,13aR)-3-((1S,2R)-(10aR,13aR)-3-((1R,2S)-2-methoxycyclobutyl)-1-methyl-8-(trifluoromethyl)-3,4,10a,11,13a,14-hexahydro-10H,13H-5,9-(azeno)furo[3,4-k]pyrazolo[4,3-b][1]oxa[4,6,10]triazacyclotridecine], the “LRRK2 pIC50” value is recorded as 8.96.
For `COC1CCC1n1nc(C)c2c1Nc1ncc(C(F)(F)F)c(n1)NC1COCC1CO2` [Ex-2.41, (10aS,13aS)-3-((1R,2R)-(10aS,13aS)-3-((1S,2R)-(10aS,13aS)-3-((1R,2S)-(10aS,13aS)-3-((1R,2R)-(10aR,13aR)-3-((1S,2R)-(10aR,13aR)-3-((1R,2S)-2-methoxycyclobutyl)-1-methyl-8-(trifluoromethyl)-3,4,10a,11,13a,14-hexahydro-10H,13H-5,9-(azeno)furo[3,4-k]pyrazolo[4,3-b][1]oxa[4,6,10]triazacyclotridecine], the “LRRK2 pIC50” value is recorded as 6.51.
Then `Cc1nn(C(C)C)c2c1OC[C@@H]1COC[C@H]1Nc1nc(ncc1C(F)(F)F)N2` [Ex-2.42, (10aS,13aS)-3-isopropyl-1-methyl-8-(trifluoromethyl)-3,4,10a,11,13a,14-hexahydro-10H,13H-5,9-(azeno)furo[3,4-k]pyrazolo[4,3-b][1]oxa[4,6,10]triazacyclotridecine], with 9.93.
Then `CC(C)n1nc(C(C)(C)C#N)c2c1Nc1ncc(C(F)(F)F)c(n1)N[C@@H]1COC[C@H]1CO2` [Ex-2.43, 2-((10aS,13aS)-3-isopropyl-8-(trifluoromethyl)-3,4,10a,11,13a,14-hexahydro-10H,13H-5,9-(azeno)furo[3,4-k]pyrazolo[4,3-b][1]oxa[4,6,10]triazacyclotridecin-1-yl)-2-methylpropanenitrile], with above 10.09.

For the origin of these results see patent US20250313575A1, “MACROCYCLES AS LRRK2 INHIBITORS, PHARMACEUTICAL COMPOSITIONS, AND USES THEREOF” (Merck Sharp & Dohme LLC, priority 2022, published 2025).
